From US20060058346A1, “Novel enantiomers of etrahydroisoquinoline derivatives and theirpharmaceutically acceptable salts, their preparations and pharmaceutical compositions” (priority 2002, published 2006)
Read-outs that look alike come from different tables or passages of the source.

Key:
[1] = system: LPS-injected rat; assay: Survival in LPS-injected rat; format: in vivo; details: for survival at 30 mg/kg than 15 mg/kg: LPS 20 mg/kg
Method: Rats (25˜30 g, ICR), originated from NIH cancer institute (Bethesda, Md., USA) were purchased from Korea Test Animal Corp. (Unsung, Korea). 20 mg/kg of LPS was injected to abdominal cavity of the rat. Thereafter, survival was observed every 24 hours for seven days, to investigate effect of enantiomer on the survival in LPS-injected rat. The compound represented by formula 3 to 8 was administered 30 min before the LPS injection.

[2] = system: Rat Thoracic Aortas; assay: Relaxation of rat thoracic aortas contracted by phenylephrine; details: for IC50: Rattus norvegicus, Endothelial cell, 0.1 μM phenylephrine contraction; for relaxation of contracted blood vessels: concentration-dependant manner
Method: Experimental group was divided into two groups, group containing endothelial cells of blood vessel and group not containing. Blood vessel of thoracic aortas was induced to contract by treatment with 0.1 μM of phenyleprine under tension of 1 g. Upon arriving at equilibrium, the enantiomers were added to an organ bath in a cumulative manner. Relaxation of thoracic aortas was recorded using a physiograph (Grass P7), calculating their response to the compounds with consideration of their added amount.

[3] = system: rat PRP; assay: Inhibition of platelet aggregation in rat PRP; format: cell-based; details: for IC50: Platelet, rat PRP; for inhibitory effect on epinephrine-induced platelet aggregation, times as strong as R-enantiomer: S versus R; for inhibitory effect on epinephrine-induced platelet aggregation, times as strong as racemic mixture: S versus racemic mixture; for inhibition of platelet aggregation induced by ADP: even at the concentration as high as 1×10^−3 M
Method: Male rat (weighing 200±20 g) was anaesthetized with ether. The blood (nine volumes) was collected from heart using a plastic syringe containing 2.2% sodium citrate (one volume). The collected blood was centrifuged at 200×g for 10 minutes to give supernatant platelet-rich plasma (PRP). The residue was centrifuged again at 700×g for 30 minutes, giving platelet-poor plasma (PPP) for experiment. We used a platelet analyzer to count the number of platelet of the PRP. PRP was diluted with physiological saline solution to prepare solution containing platelets in an amount of 400-450×10^6/ml. The inhibitory effects of the compound represented by formulas 3 to 8 was evaluated by platelet aggregation analyzer, and the inhibitory effect of each compound is given as % below. That is, after PRP was incubated for 3 minutes at 37° C., the compounds or a carrier was added thereto, and after 1 min, platelet aggregation-inducing agent such as ADP, collagen, arachidonic acid (AA), U46619 or epinephrine was added thereto, followed by investigation of turbidity caused by aggregation of platelets. % Inhibition=A−B/A×100 [arithmetic formula 1] • (A: Platelet aggregation rate in group treated with an aggregation-inducing agent; • B: Platelet aggregation rate in group treated with both an aggregation-inducing agent and the enantiomers simultaneously)

[4] = system: RAW 264.7 macrophage cells; assay: Nitric oxide production in macrophage cell stimulated by LPS (Griess); format: cell-based; details: for NO production by LPS in macrophage cell: LPS 1 μg/ml; for inhibition of production of NO: LPS-stimulated macrophage cell
Method: RAW 264.7 macrophage cells were plated on 100 mm culture dishes at a density of 1-2×10^5 cells. Thereafter, the said macrophage cell was incubated in DMEM medium containing 10% fetal calf serum (heat-inactivated), 100 U/ml penicillin, and […] streptomycin in a CO2 incubator. The said macrophage cell was incubated therein confluently. The said incubated macrophage cells were transferred to serum-free DMEM medium, and further incubated therein for about 24 hours. Thereafter, macrophage cells were stimulated with LPS (1 μg/ml) for about 8 hours. (In this progress, experimental group was divided into two groups, group to which the compound was administered, and group to which the compound was not.) Then, nitrite quantification was achieved by performing calorimetric reaction for produced nitrite with Griess reagent and then measuring absorbance at 550 nm, while using NaNO2 as a standard.

[5] = system: right auricle muscle; assay: Heart rates (beats) of right auricle muscle excised from rats; set-up: species or system rat; details: for Heart Rates of Auricle Muscles: vehicle control:100%
Method: (§1) Immediately after Sprague-Dawley rats (female or male) were anaesthetized with pentobarbital sodium (50 mg/kg, i.m.), the thorax was opened to excise the heart. The heart was submerged in Krebs solution, and left auricle muscle and right auricle muscle were then isolated. The left auricle muscle was placed in an organ bath for recording of contractile force, and applied with electrical field stimulation (voltage 10% higher than threshold voltage, 1 Hz frequency, 5 ms duration). In the case of right auricle muscle, which contracts spontaneously, the number of continuous beats was recorded. In this experiment, to measure contractile fore of the two auricle muscles, the organ bath was warmed to 37° C., and as a physiological solution, Krebs solution (119.8 mM NaCl, 4.6 mM KCl, 2.5 mM CaCl2, 1.2 mM MgCl2, 25 mM NaHCO3, 1.2 mM KH2PO4, 10 mM glucose, 1 mM EDTA, pH 7.4) was used. The Krebs solution (pH 7.4) was continuously saturated with a gas mixture of 95% O2 and 5% CO2. The auricle muscle was under a tension of 1 g, and Krebs solution was exchanged with fresh solution at intervals of 20 minutes while equilibrium was maintained during a recording period of 60 minutes.

[6] = system: left auricle muscle; assay: Contractile force of left auricle muscle excised from rats; set-up: species or system rat; details: for Contractile Force of Auricle Muscles: vehicle control:100%
Method: as §1

[7] = Acute toxicity in rat (LD50); format: in vivo; details: Sprague-Dawley, in vivo
Method: Sprague-Dawley rats (six weeks) were used as test sample. Each group was comprised of two rats. […] The said emulsion was administered to two rats one times using intravenous injection and intraperitoneal injection.

[8] = 15 mg/kg compound 30 min before LPS 20 mg/kg i.p.
[9] = group containing endothelial cells, read-out: IC50 (E+), concentration showing relaxation response of 50%
[10] = group not containing endothelial cells, read-out: IC50 (E−), concentration showing relaxation response of 50%
[11] = ADP 2 − 5 × 10^−6 M, read-out: IC50 platelet aggregation, ADP
[12] = U46619 1.5 × 10^−6 M with threshold collagen, read-out: IC50 platelet aggregation, U46619
[13] = arachidonic acid 1 − 4 × 10^−5 M with threshold collagen, read-out: IC50 platelet aggregation, AA
[14] = collagen 2 − 5 × 10^−6 g/ml, read-out: IC50 platelet aggregation, collagen
[15] = epinephrine 1 − 4 × 10^−6 M with threshold collagen, read-out: IC50 platelet aggregation, Epinephrine
[16] = ip, single intraperitoneal injection, read-out: LD50, Intraperitioneal injection
[17] = single intravenous injection, read-out: LD50, Intravenous injection
[18] = 30 mg/kg compound 30 min before LPS 20 mg/kg i.p.

SMILES | survival after six days [1, 8] | IC50 [2, 9] | IC50 [2, 10] | relaxation of contracted blood vessels [2] | IC50 [3, 11] | IC50 [3, 12] | IC50 [3, 13] | IC50 [3, 14] | IC50 [3, 15] | NO production by LPS in macrophage cell ([4]; compound 10 μM) | NO production by LPS in macrophage cell ([4]; compound 50 μM) | NO production by LPS in macrophage cell ([4]; compound 100 μM) | Heart Rates of Auricle Muscles ([5]; 1 × 10^−4 M) | Heart Rates of Auricle Muscles ([5]; 1 × 10^−5 M) | Heart Rates of Auricle Muscles ([5]; 1 × 10^−6 M) | Heart Rates of Auricle Muscles ([5]; 1 × 10^−7 M) | Heart Rates of Auricle Muscles ([5]; 3 × 10^−5 M) | Heart Rates of Auricle Muscles ([5]; 3 × 10^−6 M) | Heart Rates of Auricle Muscles ([5]; 3 × 10^−7 M) | Contractile Force of Auricle Muscles ([6]; 1 × 10^−4 M) | other results
Oc1ccc(C[C@@H]2NCCc3cc(O)c(O)cc32)cc1 [Formula 3, (S)-6,7-Dihydroxy-1-(p-hydroxyphenylmethyl)-1,2,3,4-tetrahydroisoquinoline] | 80% | 0.917 µM | 4.3 µM | induced relaxation | > 1000 µM | 25 µM | 9.1 µM | 450 µM | 1.6 µM | 30.5 µM | 22.3 µM | 18.2 µM | 250% | 180% | 145% | 130% | 200% | 150% | 140% | 300% | survival at 30 mg/kg than 15 mg/kg [1]: increased; inhibitory effect on epinephrine-induced platelet aggregation, times as strong as R-enantiomer [3]: about nine times as strong; inhibitory effect on epinephrine-induced platelet aggregation, times as strong as racemic mixture [3]: about five times as strong; inhibition of platelet aggregation induced by ADP [3]: did not inhibit; Contractile Force of Auricle Muscles ([6]; 1 × 10^−5 M): 300%; Contractile Force of Auricle Muscles ([6]; 1 × 10^−6 M): 250%; Contractile Force of Auricle Muscles ([6]; 1 × 10^−7 M): 140%; Contractile Force of Auricle Muscles ([6]; 3 × 10^−5 M): 300%; Contractile Force of Auricle Muscles ([6]; 3 × 10^−6 M): 290%; Contractile Force of Auricle Muscles ([6]; 3 × 10^−7 M): 180%; LD50 [7, 16]: 450 mg/kg; LD50 [7, 17]: 154 mg/kg
Oc1ccc(C[C@H]2NCCc3cc(O)c(O)cc32)cc1 [Formula 4, (R)-6,7-Dihydroxy-1-(p-hydroxyphenylmethyl)-1,2,3,4-tetrahydroisoquinoline] | 60% | 4.64 µM | 7.7 µM | induced relaxation | ≥ 1000 µM | 15 µM | 11 µM | 300 µM | 14 µM | 20.1 µM | 10.3 µM | 8.2 µM | 140% | 120% | 110% | 100% | 130% | 115% | 100% | 300% | survival after six days [1, 18]: 67%; inhibition of platelet aggregation induced by ADP [3]: did not inhibit; inhibition of production of NO [4]: inhibited production of NO weakly than S-enantiomer did; effect on heart rates of auricle muscles [5]: increased; effect on contractile force of auricle muscles [6]: increased; Contractile Force of Auricle Muscles ([6]; 1 × 10^−5 M): 200%; Contractile Force of Auricle Muscles ([6]; 1 × 10^−6 M): 130%; Contractile Force of Auricle Muscles ([6]; 1 × 10^−7 M): 100%; Contractile Force of Auricle Muscles ([6]; 3 × 10^−5 M): 250%; Contractile Force of Auricle Muscles ([6]; 3 × 10^−6 M): 160%; Contractile Force of Auricle Muscles ([6]; 3 × 10^−7 M): 100%; LD50 [7, 16]: 262 mg/kg; LD50 [7, 17]: 95 mg/kg
Oc1cc2c(cc1O)[C@H](Cc1cccc3ccccc13)NCC2 [Formula 5] | 100% | 0.714 µM | 5.5 µM | induced relaxation | 240 µM | 16 µM | 5.6 µM | 69 µM | 0.38 µM | 21.3 µM | 14.8 µM | 14.2 µM | 190% | 180% | 175% | 150% | 187% | 178% | 162.5% | 700% | survival after six days [1, 18]: 100%; survival at 30 mg/kg than 15 mg/kg [1]: increased; inhibitory effect on epinephrine-induced platelet aggregation, times as strong as R-enantiomer [3]: about six times as strong; inhibitory effect on epinephrine-induced platelet aggregation, times as strong as racemic mixture [3]: about five times as strong; inhibition of production of NO [4]: strongly inhibited production of NO; effect on heart rates of auricle muscles [5]: strongly stimulated; effect on contractile force of auricle muscles [6]: strongly increased; Contractile Force of Auricle Muscles ([6]; 1 × 10^−5 M): 630%; Contractile Force of Auricle Muscles ([6]; 1 × 10^−6 M): 450%; Contractile Force of Auricle Muscles ([6]; 1 × 10^−7 M): 200%; Contractile Force of Auricle Muscles ([6]; 3 × 10^−5 M): 660%; Contractile Force of Auricle Muscles ([6]; 3 × 10^−6 M): 550%; Contractile Force of Auricle Muscles ([6]; 3 × 10^−7 M): 280%; LD50 [7, 16]: 397 mg/kg; LD50 [7, 17]: 172 mg/kg
Oc1cc2c(cc1O)[C@@H](Cc1cccc3ccccc13)NCC2 [Formula 6, (R)-6,7-Dihydroxy-1-(α-naphthylmethyl)-1,2,3,4-tetrahydroisoquinoline] | 73% | 1.28 µM | 8.81 µM | induced relaxation | 540 µM | 20 µM | 11 µM | 140 µM | 2.4 µM | 36 µM | 34 µM | 38 µM | 71% | 85% | 93.75% | 100% | 75% | 94% | 93.75% | 50% | survival after six days [1, 18]: 93%; inhibition of production of NO [4]: never or slightly inhibited production of NO; effect on heart rates of auricle muscles [5]: no effect; effect on contractile force of auricle muscles [6]: no effect; Contractile Force of Auricle Muscles ([6]; 1 × 10^−5 M): 50%; Contractile Force of Auricle Muscles ([6]; 1 × 10^−6 M): 75%; Contractile Force of Auricle Muscles ([6]; 1 × 10^−7 M): 100%; Contractile Force of Auricle Muscles ([6]; 3 × 10^−5 M): 50%; Contractile Force of Auricle Muscles ([6]; 3 × 10^−6 M): 50%; Contractile Force of Auricle Muscles ([6]; 3 × 10^−7 M): 87%; LD50 [7, 16]: 230 mg/kg; LD50 [7, 17]: 88 mg/kg
